Data as given in patent EP4778516A1, “CALCIFICATION ENHANCER FOR OSTEOBLAST MC3T3-E1 CELL” (Watanabe Oyster Laboratory Co., Ltd., priority 2023, dated 2025).

Key:
[1] = test system: MC3T3-E1 cells; assay: Cell proliferation assay (cell counting); assay type: cell-based, mouse; conditions: Bay 11-7082 1, 10, or 50 nM, 3 days; Fig. 7B
Procedure: To examine progression of cell proliferation, MC3T3-E1 cells (1×10^5/ml medium per well) were cultured using a 24-well plate in a-MEM supplemented with 10% FBS and 1% P/S at 37°C in a water-saturated atmosphere containing 5% CO2 and 95% air. The cells were cultured for 1, 2, 3, 4, or 5 days in the presence of a vehicle (1% ethanol as final concentration) or DHMBA (10 mM). In another experiment, to evaluate the effects of increased concentrations of DHMBA on MC3T3-E1 cells, the cells (1×10^5/ml per well) were cultured using a 24-well plate in DMEM (containing 10% FBS and 1% P/S). The cells were cultured for 3 days in the presence of either a reagent vehicle (1% ethanol as final concentration) or DHMBA (0.1, 1, 10, 100, or 1000 mM).
To evaluate the effects of DHMBA on cell death of osteoblasts MC3T3-E1, the cells (1×10^5/ml medium per well in a 24-well plate) were cultured in a-MEM containing 10% FBS and 1% P/S. After culturing for 3 days until reaching subconfluence, either a reagent vehicle (1% ethanol as final concentration) or DHMBA (0.1, 1, 10, 100, or 1000 mM) was added, and the cells were further cultured for 48 hours. After culture, to count the number of cells attached to each well, a […] containing 0.05% trypsin and EDTA (0.1 ml per well) was added, and then the culture plates were incubated at 37°C for 2 minutes. Subsequently, a-MEM (0.9 ml) containing 10% FBS and 1% P/S was added, and the cells were detached and mixed by pipetting. The cell suspension (0.1 ml) was mixed with 0.1 ml of 0.5% trypan blue staining solution. By this staining, […]. Viable cells were counted under a microscope (Olympus MTV-3) using a hemocytometer (Sigma-Aldrich, St. Louis, MO) and a cell counter (H-102P, Line Seiki Co., Ltd., Tokyo, Japan), and the average of two counts was calculated. Cell numbers were expressed as the number per well.

[2] = test system: MC3T3-E1 cells; assay: Effects of conditioned medium of LPS-stimulated RAW264.7 cells on MC3T3-E1 cells; assay type: cell-based, mouse; conditions: Bay 11-7082 1 or 10 nM, conditioned medium 0.5 ml per well
Procedure: A conditioned medium was obtained by culturing RAW264.7 cells.
RAW264.7 cells (1×10^5 cells/ml per well in a 24-well plate) were cultured for 3 days after reaching subconfluence in DMEM containing 10% FBS and 1% P/S in the presence or absence of LPS (concentration in the medium: 100 ng/ml). After the cells were cultured, the medium (conditioned medium) was collected.
To evaluate the effects of the conditioned medium on proliferation of MC3T3-E1 cells, MC3T3-E1 cells were cultured for 3 days in a-MEM containing 10% FBS and 1% P/S. The cells were then cultured for 3 days using either the conditioned medium (1 ml, control) cultured without LPS or the conditioned medium (0.25 or 0.50 ml per well, adjusted to 1 ml with normal medium) cultured with LPS in the presence or absence of DHMBA (1 or 10 mM).
Further, to examine the effects on cell death of MC3T3-E1 cells, the cells (1×10^5 cells/ml per well) were cultured for 3 days in a-MEM containing 10% FBS and 1% P/S. After reaching subconfluence, the medium was replaced. The cells were then further cultured for 48 hours in either the normal medium, the conditioned medium (1 ml) cultured without LPS, or the conditioned medium (0.25 or 0.50 ml per well, adjusted to 1 ml with normal medium) with either a reagent vehicle (1% ethanol as final concentration) or DHMBA (1 or 10 mM). After culture, the cells were detached from each culture well, and cell numbers were counted in the same manner as described above.
Further, the effects of Bay 11-7082, which is an NF-kB signaling inhibitor, on proliferation or cell death of MC3T3-E1 cells were investigated. First, to examine the effects of Bay 11-7082 on proliferation of MC3T3-E1 cells, the cells (1×10^5 cells/1 ml per well in a 24-well plate) were cultured for 3 days until reaching subconfluence in the presence of 10% FBS, 1% P/S, and either a reagent vehicle (1% ethanol as final concentration) or Bay 11-7082 (1, 10, 50, 100, or 1000 nM). Next, MC3T3-E1 cells were cultured for 3 days in the presence of the conditioned medium (0.5 ml per well, adjusted to a total of 1 ml with normal medium) with or without Bay 11-7082 (1 or 10 nM) in the presence or absence of DHMBA (10 mM).
In another experiment, to evaluate the effects of Bay 11-7082 on cell death of MC3T3-E1, the cells (1×10^5 cells/1 ml per well in a 24-well plate) were cultured in a-MEM containing 10% FBS and 1% P/S. After culturing for 3 days until reaching subconfluence, the medium was replaced with a-MEM (1 ml) containing either the normal medium or the conditioned medium prepared by adding the normal medium to 0.5 ml per well of the conditioned medium, adjusted to a total volume of 1 ml. The cells were then further cultured for 48 hours in the presence of Bay 11-7082 (1 or 10 nM), or Bay 11-7082 (10 nM) in combination with DHMBA (10 mM). After culture, the cells were detached from each culture well, and cell numbers were counted as described above.

Cc1ccc(S(=O)(=O)/C=C/C#N)cc1 [Bay 11-7082, reference compound]
number of MC3T3-E1 cells [1]: did not cause a significant reduction
effects of the conditioned medium on enhancement of cell death of MC3T3-E1 cells ([2]; 48 hours, Fig. 7D): suppressed
effects of the conditioned medium on inhibition of proliferation of MC3T3-E1 cells ([2]; 3 days, Fig. 7C): suppressed
